# Reference: US10035806B2, “Derivatized corroles and metallocorroles and their use as imaging and therapeutic agents” (CALIFORNIA INSTITUTE OF TECHNOLOGY, priority 2015, dated 2018)
# How the values were obtained:
# [1] = tested on: 60 human tumor cell lines (NCI60); assay: NCI60 anticancer drug screen, whole panel; assay type: cell-based; conditions: 10 μM, 48 h
# From the text: (§1) The aminocaproate-substituted corrole Complex 3 was submitted to NCI for cytotoxic screening at a single high dose (10−5M) in a panel of 60 human tumor cell lines (NCI60). Details of the cytotoxicity assessment in the NCI anticancer drug screen have been described previously, in Monks A, et al. (1991) Feasibility of a high-flux anticancer drug screen using a diverse panel of cultured human tumor cell lines. J Natl Cancer Inst 83(11):757-766, this reference being incorporated by reference for these teachings.
# In view of the promising results observed for carboxylated corroles, Complex 3 was selected for expanded cell screening to uncover additional susceptible cancer cell lines. The cytotoxic activity of Complex 3 was tested at a dose of 10^−5 M against 60 human cancer cell lines representing nine distinct tumor types in the anticancer screening program of the National Cancer Institute (NCI). The in vitro parameters for cytotoxicity, growth percent, and lethality were obtained for Complex 3 and reported as a mean graph of the percent growth of treated cells (FIG. 7). Bars in the mean graph depict the deviation of individual tumor cell lines from the overall mean value for all cells tested. Bars that project to the right of the mean represent cell lines that are more sensitive to Complex 3, whereas cell lines less sensitive to the compound display bars that project to the left. […]
# A549/ATCC = assay: NCI60 anticancer drug screen; assay type: cell-based, human; conditions: A549/ATCC (Non-small-cell lung cancer), 10 μM, 48 h
# From the text: as §1
# (§2) In view of the promising results observed for carboxylated corroles, Complex 3 was selected for expanded cell screening to uncover additional susceptible cancer cell lines. The cytotoxic activity of Complex 3 was tested at a dose of 10^−5 M against 60 human cancer cell lines representing nine distinct tumor types in the anticancer screening program of the National Cancer Institute (NCI). The in vitro parameters for cytotoxicity, growth percent, and lethality were obtained for Complex 3 and reported as a mean graph of the percent growth of treated cells (FIG. 7). Bars in the mean graph depict the deviation of individual tumor cell lines from the overall mean value for all cells tested. Bars that project to the right of the mean represent cell lines that are more sensitive to Complex 3, whereas cell lines less sensitive to the compound display bars that project to the left.
# (§3) The numerical values associated with this assay represent growth relative to the no-drug control and the numbers of cells at time 0 (FIG. 7). This allows detection of both growth inhibition (values between 0 and 100) and lethality (values less than 0). For example, a value of 100 signifies no growth inhibition, 40 means 60% growth inhibition, 0 means no net growth over the course of the experiment, −40 means 40% lethality, and −100 indicates all cells are dead. […] Growth inhibitions reflect cytostatic activity of the compound as previously shown for Complex 2. In contrast, cell lethality is only evident in melanoma cells, specifically the LOX IMVI and SK-MEL-28 cell lines.
# CAK-1 = assay: NCI60 anticancer drug screen; assay type: cell-based, human; conditions: CAK-1 (Renal Cancer), 10 μM, 48 h
# From the text: as §1, §2, §3
# CCRF-CEM = assay: NCI60 anticancer drug screen; assay type: cell-based, human; conditions: CCRF-CEM (Leukemia), 10 μM, 48 h
# From the text: as §1, §2, §3
# COLO 205 = assay: NCI60 anticancer drug screen; assay type: cell-based, human; conditions: COLO 205 (Colon cancer), 10 μM, 48 h
# From the text: as §1, §2, §3
# HL-60 (TB) = assay: NCI60 anticancer drug screen; assay type: cell-based, human; conditions: HL-60 (TB) (Leukemia), 10 μM, 48 h
# From the text: as §1, §2, §3
# HPO-92 = assay: NCI60 anticancer drug screen; assay type: cell-based, human; conditions: HPO-92 (Non-small-cell lung cancer), 10 μM, 48 h
# From the text: as §1, §2, §3
# HS 578T = assay: NCI60 anticancer drug screen; assay type: cell-based, human; conditions: HS 578T (Breast Cancer), 10 μM, 48 h
# From the text: as §1, §2, §3
# IGROV1 = assay: NCI60 anticancer drug screen; assay type: cell-based, human; conditions: IGROV1 (Ovarian Cancer), 10 μM, 48 h
# From the text: as §1, §2, §3
# K-562 = assay: NCI60 anticancer drug screen; assay type: cell-based, human; conditions: K-562 (Leukemia), 10 μM, 48 h
# From the text: as §1, §2, §3
# KM12 = assay: NCI60 anticancer drug screen; assay type: cell-based, human; conditions: KM12 (Colon cancer), 10 μM, 48 h
# From the text: as §1, §2, §3
# M14 = assay: NCI60 anticancer drug screen; assay type: cell-based, human; conditions: M14 (Melanoma), 10 μM, 48 h
# From the text: as §1, §2, §3
# MCF7 = assay: NCI60 anticancer drug screen; assay type: cell-based, human; conditions: MCF7 (Breast Cancer), 10 μM, 48 h
# From the text: as §1, §2, §3
# MDA-MB-435 = assay: NCI60 anticancer drug screen; assay type: cell-based, human; conditions: MDA-MB-435 (Melanoma), 10 μM, 48 h
# From the text: as §1, §2, §3
# NCI-H23 = assay: NCI60 anticancer drug screen; assay type: cell-based, human; conditions: NCI-H23 (Non-small-cell lung cancer), 10 μM, 48 h
# From the text: as §1, §2, §3
# NCI-H322M = assay: NCI60 anticancer drug screen; assay type: cell-based, human; conditions: NCI-H322M (Non-small-cell lung cancer), 10 μM, 48 h
# From the text: as §1, §2, §3
# NCI-H522 = assay: NCI60 anticancer drug screen; assay type: cell-based, human; conditions: NCI-H522 (Non-small-cell lung cancer), 10 μM, 48 h
# From the text: as §1, §2, §3
# NCl/ADR-RES = assay: NCI60 anticancer drug screen; assay type: cell-based, human; conditions: NCl/ADR-RES (Ovarian Cancer), 10 μM, 48 h
# From the text: as §1, §2, §3
# OVCAR-4 = assay: NCI60 anticancer drug screen; assay type: cell-based, human; conditions: OVCAR-4 (Ovarian Cancer), 10 μM, 48 h
# From the text: as §1, §2, §3
# OVCAR-5 = assay: NCI60 anticancer drug screen; assay type: cell-based, human; conditions: OVCAR-5 (Ovarian Cancer), 10 μM, 48 h
# From the text: as §1, §2, §3
# PC-3 = assay: NCI60 anticancer drug screen; assay type: cell-based, human; conditions: PC-3 (Prostate Cancer), 10 μM, 48 h
# From the text: as §1, §2, §3
# RXF 398 = assay: NCI60 anticancer drug screen; assay type: cell-based, human; conditions: RXF 398 (Renal Cancer), 10 μM, 48 h
# From the text: as §1, §2, §3
# SF-295 = assay: NCI60 anticancer drug screen; assay type: cell-based, human; conditions: SF-295 (CNS Cancer), 10 μM, 48 h
# From the text: as §1, §2, §3
# SK-MEL-5 = assay: NCI60 anticancer drug screen; assay type: cell-based, human; conditions: SK-MEL-5 (Melanoma), 10 μM, 48 h
# From the text: as §1, §2, §3
# SN12C = assay: NCI60 anticancer drug screen; assay type: cell-based, human; conditions: SN12C (Renal Cancer), 10 μM, 48 h
# From the text: as §1, §2, §3
# SR = assay: NCI60 anticancer drug screen; assay type: cell-based, human; conditions: SR (Leukemia), 10 μM, 48 h
# From the text: as §1, §2, §3
# T-47D = assay: NCI60 anticancer drug screen; assay type: cell-based, human; conditions: T-47D (Breast Cancer), 10 μM, 48 h
# From the text: as §1, §2, §3
# TK-10 = assay: NCI60 anticancer drug screen; assay type: cell-based, human; conditions: TK-10 (Renal Cancer), 10 μM, 48 h
# From the text: as §1, §2, §3
smiles,measurement,setting,value
O=C(O)CCCCCNc1c(F)c(F)c(C2=C3C=CC4=[N+]3[Ga-]35[n]6c2ccc6C(c2c(F)c(F)c(F)c(F)c2F)=c2ccc([n]23)=C(c2c(F)c(F)c(F)c(F)c2F)c2ccc4[n]25)c(F)c1F (centres unmarked) [Complex 3],activity against all NCI60 cell lines derived from nine tumor types,[1],highly active
same,average growth inhibition,[1]; NCI60 panel,70%
same,"Growth inhibition, %",A549/ATCC,82.7%
same,"Growth inhibition, %",CAK-1,71.7%
same,"Growth inhibition, %",CCRF-CEM,91.1%
same,"Growth inhibition, %",COLO 205,51.7%
same,"Growth inhibition, %",HL-60 (TB),86.1%
same,"Growth inhibition, %",HPO-92,81.6%
same,"Growth inhibition, %",HS 578T,81.2%
same,"Growth inhibition, %",IGROV1,55.7%
same,"Growth inhibition, %",K-562,72.9%
same,"Growth inhibition, %",KM12,80.6%
same,"Growth inhibition, %",M14,84.1%
same,"Growth inhibition, %",MCF7,63.1%
same,"Growth inhibition, %",MDA-MB-435,90.8%
same,"Growth inhibition, %",NCI-H23,64.5%
same,"Growth inhibition, %",NCI-H322M,32.9%
same,"Growth inhibition, %",NCI-H522,44.6%
same,"Growth inhibition, %",NCl/ADR-RES,52.7%
same,"Growth inhibition, %",OVCAR-4,59.9%
same,"Growth inhibition, %",OVCAR-5,53.1%
same,"Growth inhibition, %",PC-3,71.9%
same,"Growth inhibition, %",RXF 398,96.7%
same,"Growth inhibition, %",SF-295,53.2%
same,"Growth inhibition, %",SK-MEL-5,72.0%
same,"Growth inhibition, %",SN12C,78.8%
same,"Growth inhibition, %",SR,87.5%
same,"Growth inhibition, %",T-47D,45.9%
same,"Growth inhibition, %",TK-10,47.3%
